# Measurements taken from PubChem BioAssay (NCI).
# Where “and” joins values, the source holds several entries; their conditions need not be identical. Equal entries are not always repeated.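 Following 48 hours of exposure in 96-well plates, responses at five concentrations were used to interpolate endpoints linearly. The concentration for 50% growth inhibition is given as GI50. TGI: total growth inhibition.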 Where a SMILES comes first, the peptide text is derived from it. The star is where a group is joined. Boc = CC(C)(C)OC(=O)*; Bn = c1ccc(C*)cc1
# How the values were obtained:
# Experiment in all cases: growth of human tumour cells (NCI), 48 h
# MDA-MB-231 breast = tested on: MDA-MB-231 breast
# HOP-92 NSCLC = tested on: HOP-92 NSCLC
# HCC-2998 colon = tested on: HCC-2998 colon
# LOX IMVI melanoma = tested on: LOX IMVI melanoma
# NCI/ADR-RES ovarian = tested on: NCI/ADR-RES ovarian
# UO-31 renal = tested on: UO-31 renal
# SK-OV-3 ovarian = tested on: SK-OV-3 ovarian
# HCT-116 colon = tested on: HCT-116 colon
# SK-MEL-28 melanoma = tested on: SK-MEL-28 melanoma
# KM12 colon = tested on: KM12 colon
# HCT-15 colon = tested on: HCT-15 colon
# 786-0 renal = tested on: 786-0 renal
# NCI-H460 lung = tested on: NCI-H460 lung
# BT-549 breast = tested on: BT-549 breast
# PC-3 prostate = tested on: PC-3 prostate
# OVCAR-8 ovarian = tested on: OVCAR-8 ovarian
SMILES,TGI (MDA-MB-231 breast),TGI (HOP-92 NSCLC),TGI (HCC-2998 colon),TGI (LOX IMVI melanoma),TGI (NCI/ADR-RES ovarian),TGI (UO-31 renal),TGI (SK-OV-3 ovarian),TGI (HCT-116 colon),TGI (SK-MEL-28 melanoma),TGI (KM12 colon),TGI (HCT-15 colon),TGI (786-0 renal),TGI (NCI-H460 lung),TGI (BT-549 breast),TGI (PC-3 prostate),TGI (OVCAR-8 ovarian),GI50 (HCC-2998 colon),GI50 (SK-MEL-28 melanoma),GI50 (NCI-H460 lung),GI50 (PC-3 prostate)
C/C=C\C(CC(=O)OC)CC(=O)N(CCC1CN(S(=O)(=O)C(F)(F)F)c2ccccc21)Cc1ccc(OC)cc1OC (centres undefined),> 100 µM,> 100 µM,> 100 µM,> 100 µM,> 100 µM,> 100 µM,> 100 µM,> 100 µM,> 100 µM,> 100 µM,> 100 µM,> 100 µM,> 100 µM,> 100 µM,> 100 µM,–,–,–,–,–
O=C(Nc1cccc(C(=O)NCCCO)c1)/C(=C/c1ccccc1)NC(=O)c1ccccc1,> 100 µM,> 100 µM,> 100 µM,> 100 µM,> 100 µM,> 100 µM,> 100 µM,> 100 µM,> 100 µM,> 100 µM,> 100 µM,> 100 µM,> 100 µM,> 100 µM,> 100 µM,> 100 µM,–,–,–,–
CNC(=O)C(CC(C)C)NC(=O)C(C)NC(=O)C(Cc1ccc(OCc2ccccc2)cc1)NC(=O)C(COCc1ccccc1)NC(=O)OC(C)(C)C (centres undefined) (Boc-S(Bn)Y(Bn)AL-NHMe; configuration not given here),35.7 µM and 36 µM,> 80.8 µM and 51.7 µM,> 87.3 µM and 9.17 µM,27.5 µM and 48.8 µM,> 100 µM,> 100 µM,> 60.3 µM and 39.6 µM,20.1 µM and 20.5 µM,> 100 µM and 30.9 µM,> 44.2 µM and 40.3 µM,> 100 µM,54.9 µM and 39.4 µM,> 61.4 µM and 42.6 µM,55.5 µM and 40.4 µM,58.4 µM and 18.6 µM,35 µM and 48.5 µM,29.3 µM and 3.13 µM,> 62.5 µM and 14.1 µM,> 41 µM and 18.3 µM,19.2 µM and 2.53 µM
COc1cc(CNc2c3ccccc3nc3ccccc23)cc(OC)c1OC,23.6 µM,16.7 µM,11.9 µM,6.75 µM,14.2 µM,11.5 µM,28.4 µM,11.2 µM,20.2 µM,21.3 µM,14 µM,14.3 µM,8.18 µM,16.2 µM,11.9 µM,14 µM,–,–,–,–
CCC1CCC2c3c([nH]c4ccc(C)cc34)C3C(=O)N(N(C)C)C(=O)C3C2C1 (centres undefined),> 100 µM,> 100 µM,> 100 µM,> 100 µM,> 53.5 µM,> 100 µM,> 100 µM,52.9 µM,> 100 µM,> 100 µM,> 100 µM,> 60.1 µM,> 68 µM,> 100 µM,> 100 µM,> 100 µM,–,–,–,–
CC(=O)Nc1cc2nc3n(c2cc1C)CCC3OC(C)=O (centres undefined),> 100 µM,> 100 µM,> 100 µM,> 100 µM,> 100 µM,> 100 µM,> 100 µM,> 100 µM,> 100 µM,> 100 µM,> 100 µM,> 100 µM,> 100 µM,> 100 µM,> 100 µM,> 100 µM,–,–,–,–
